Blank lines part the entries; values can stand above or below the molecule they belong to.
Tested on: 475296-252-R-J1-PDC spheroid viability
Experiment: Anticancer human tumor 475296-252-R-J1-PDC patient-derived rectal carcinoma cell line growth inhibition [PI3K]
Details: spheroids with HUVEC and MSC; for IC50: curve of first compound; for viability, T/C: stronger effect = lower value
Summary of the method: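 Agents were dosed from a top concentration near clinical Cmax (otherwise 10 microM) in half-log decrements, alone or combined with PI3K inhibitors. The spheroids contain tumor cells plus endothelial (HUVEC) and MSC stroma; viability is measured.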

[1] = second compound 0.00316 µM, first compound 0.0316 µM
[2] = second compound 0.00316 µM, first compound 0.1 µM
[3] = second compound 0.00316 µM, first compound 0.316 µM
[4] = second compound 0.00316 µM, first compound 1 µM
[5] = second compound 0.00316 µM, first compound 3.16 µM
[6] = second compound 0.00316 µM, first compound 10 µM
[7] = second compound 0.01 µM, first compound 0.0316 µM
[8] = second compound 0.01 µM, first compound 0.1 µM
[9] = second compound 0.01 µM, first compound 0.316 µM
[10] = second compound 0.01 µM, first compound 1 µM
[11] = second compound 0.01 µM, first compound 3.16 µM
[12] = second compound 0.01 µM, first compound 10 µM
[13] = second compound 0.0316 µM, first compound 0.0316 µM
[14] = second compound 0.0316 µM, first compound 0.1 µM
[15] = second compound 0.0316 µM, first compound 0.316 µM
[16] = second compound 0.0316 µM, first compound 1 µM
[17] = second compound 0.0316 µM, first compound 3.16 µM
[18] = second compound 0.0316 µM, first compound 10 µM
[19] = second compound 0.1 µM, first compound 0.0316 µM
[20] = second compound 0.1 µM, first compound 0.1 µM
[21] = second compound 0.1 µM, first compound 0.316 µM
[22] = second compound 0.1 µM, first compound 1 µM
[23] = second compound 0.1 µM, first compound 3.16 µM
[24] = second compound 0.1 µM, first compound 10 µM
[25] = second compound 0.316 µM, first compound 0.0316 µM
[26] = second compound 0.316 µM, first compound 0.1 µM
[27] = second compound 0.316 µM, first compound 0.316 µM
[28] = second compound 0.316 µM, first compound 1 µM
[29] = second compound 0.316 µM, first compound 3.16 µM
[30] = second compound 0.316 µM, first compound 10 µM
[31] = second compound 1 µM, first compound 0.0316 µM
[32] = second compound 1 µM, first compound 0.1 µM
[33] = second compound 1 µM, first compound 0.316 µM
[34] = second compound 1 µM, first compound 1 µM
[35] = second compound 1 µM, first compound 3.16 µM
[36] = second compound 1 µM, first compound 10 µM
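Note: spheroids exposed to agents for seven days before readout.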

Compound: CC(Cn1ccc(-c2ccc(C#N)c(Cl)c2)n1)NC(=O)c1cc(C(C)O)[nH]n1 (stereo not given) + CC(Nc1ccc2c(c1)OCCn1cc(N3C(=O)OCC3C(F)F)nc1-2)C(N)=O
IC50 (second compound 0.00316 µM): > 10 µM
IC50 (second compound 0.01 µM): > 10 µM
IC50 (second compound 0.0316 µM): > 10 µM
IC50 (second compound 0.1 µM): > 10 µM
IC50 (second compound 0.316 µM): > 10 µM
IC50 (second compound 1 µM): > 10 µM
viability, T/C [1]: 110%
viability, T/C [2]: 96.5%
viability, T/C [3]: 93.9%
viability, T/C [4]: 83.8%
viability, T/C [5]: 106%
viability, T/C [6]: 95.2%
viability, T/C [7]: 101%
viability, T/C [8]: 94%
viability, T/C [9]: 98.8%
viability, T/C [10]: 88.4%
viability, T/C [11]: 98.4%
viability, T/C [12]: 103%
viability, T/C [13]: 87.1%
viability, T/C [14]: 102%
viability, T/C [15]: 91.3%
viability, T/C [16]: 90.9%
viability, T/C [17]: 97.5%
viability, T/C [18]: 103%
viability, T/C [19]: 84.6%
viability, T/C [20]: 93.4%
viability, T/C [21]: 101%
viability, T/C [22]: 90.9%
viability, T/C [23]: 95.3%
viability, T/C [24]: 98.4%
viability, T/C [25]: 84%
viability, T/C [26]: 107%
viability, T/C [27]: 91%
viability, T/C [28]: 89.7%
viability, T/C [29]: 90.8%
viability, T/C [30]: 89.5%
viability, T/C [31]: 92%
viability, T/C [32]: 83.1%
viability, T/C [33]: 87.9%
viability, T/C [34]: 93.5%
viability, T/C [35]: 80.6%
viability, T/C [36]: 83.4%

Compound: CC1(C)CCC(Nc2ncc(C(F)(F)F)c(-c3c[nH]c4c(P(C)(C)=O)c(C#N)ccc34)n2)CN1 (stereo not given) + CC(Nc1ccc2c(c1)OCCn1cc(N3C(=O)OCC3C(F)F)nc1-2)C(N)=O
IC50 (second compound 0.00316 µM): > 10 µM
IC50 (second compound 0.01 µM): > 10 µM
IC50 (second compound 0.0316 µM): > 10 µM
IC50 (second compound 0.1 µM): > 10 µM
IC50 (second compound 0.316 µM): > 10 µM
IC50 (second compound 1 µM): > 10 µM
viability, T/C [1]: 96.4%
viability, T/C [2]: 86.1%
viability, T/C [3]: 98.4%
viability, T/C [4]: 116%
viability, T/C [5]: 174%
viability, T/C [6]: 73.9%
viability, T/C [7]: 94.5%
viability, T/C [8]: 81.3%
viability, T/C [9]: 116%
viability, T/C [10]: 136%
viability, T/C [11]: 203%
viability, T/C [12]: 82.8%
viability, T/C [13]: 91.2%
viability, T/C [14]: 99.7%
viability, T/C [15]: 96.9%
viability, T/C [16]: 136%
viability, T/C [17]: 187%
viability, T/C [18]: 77.1%
viability, T/C [19]: 96.6%
viability, T/C [20]: 103%
viability, T/C [21]: 106%
viability, T/C [22]: 136%
viability, T/C [23]: 170%
viability, T/C [24]: 72.9%
viability, T/C [25]: 82.9%
viability, T/C [26]: 92.5%
viability, T/C [27]: 104%
viability, T/C [28]: 111%
viability, T/C [29]: 147%
viability, T/C [30]: 66.5%
viability, T/C [31]: 94.7%
viability, T/C [32]: 88.4%
viability, T/C [33]: 96.4%
viability, T/C [34]: 105%
viability, T/C [35]: 113%
viability, T/C [36]: 63.1%

Compound: Cn1nccc1Nc1nccc(-c2ccn(C(CO)c3ccc(Cl)c(F)c3)c(=O)c2)n1 (stereo not given) + CC(Nc1ccc2c(c1)OCCn1cc(N3C(=O)OCC3C(F)F)nc1-2)C(N)=O
IC50 (second compound 0.00316 µM): > 10 µM
IC50 (second compound 0.01 µM): > 10 µM
IC50 (second compound 0.0316 µM): > 10 µM
IC50 (second compound 0.1 µM): > 10 µM
IC50 (second compound 0.316 µM): 6.42 µM
IC50 (second compound 1 µM): 3.52 µM
viability, T/C [1]: 92.9%
viability, T/C [2]: 92.8%
viability, T/C [3]: 99.3%
viability, T/C [4]: 91.6%
viability, T/C [5]: 90.3%
viability, T/C [6]: 80.9%
viability, T/C [7]: 96.8%
viability, T/C [8]: 97.9%
viability, T/C [9]: 94.4%
viability, T/C [10]: 89.1%
viability, T/C [11]: 92.1%
viability, T/C [12]: 74%
viability, T/C [13]: 101%
viability, T/C [14]: 105%
viability, T/C [15]: 95.7%
viability, T/C [16]: 85.8%
viability, T/C [17]: 82.9%
viability, T/C [18]: 74.7%
viability, T/C [19]: 87.6%
viability, T/C [20]: 94.7%
viability, T/C [21]: 76.8%
viability, T/C [22]: 83.7%
viability, T/C [23]: 73.3%
viability, T/C [24]: 58.1%
viability, T/C [25]: 81.1%
viability, T/C [26]: 87.4%
viability, T/C [27]: 83.1%
viability, T/C [28]: 77.2%
viability, T/C [29]: 61.1%
viability, T/C [30]: 43.1%
viability, T/C [31]: 84.1%
viability, T/C [32]: 81%
viability, T/C [33]: 87.1%
viability, T/C [34]: 67.9%
viability, T/C [35]: 53.3%
viability, T/C [36]: 31.4%

Now from value to molecule, other results behind:

IC50 (second compound 0.00316 µM): > 10 µM
IC50 (second compound 0.01 µM): > 10 µM
IC50 (second compound 0.0316 µM): > 10 µM
IC50 (second compound 0.1 µM): 9.51 µM
IC50 (second compound 0.316 µM): 1.75 µM
IC50 (second compound 1 µM): 0.828 µM
Compound: C#Cc1c(F)ccc2cc(O)cc(-c3ncc4c(N5CC6CCC(C5)N6)nc(OCC56CCCN5CC(F)C6)nc4c3F)c12 (stereo not given) + CC(Nc1ccc2c(c1)OCCn1cc(N3C(=O)OCC3C(F)F)nc1-2)C(N)=O
viability, T/C [1]: 104%
viability, T/C [2]: 78.2%
viability, T/C [3]: 87.1%
viability, T/C [4]: 74.6%
viability, T/C [5]: 67.5%
viability, T/C [6]: 67%
viability, T/C [7]: 98.6%
viability, T/C [8]: 83%
viability, T/C [9]: 85.3%
viability, T/C [10]: 73.1%
viability, T/C [11]: 75.1%
viability, T/C [12]: 59.1%
viability, T/C [13]: 94.2%
viability, T/C [14]: 87.2%
viability, T/C [15]: 77.6%
viability, T/C [16]: 73.8%
viability, T/C [17]: 73.3%
viability, T/C [18]: 59.2%
viability, T/C [19]: 89%
viability, T/C [20]: 94.6%
viability, T/C [21]: 74.3%
viability, T/C [22]: 72.1%
viability, T/C [23]: 61.1%
viability, T/C [24]: 49%
viability, T/C [25]: 78.2%
viability, T/C [26]: 87.7%
viability, T/C [27]: 86.6%
viability, T/C [28]: 61.3%
viability, T/C [29]: 36.5%
viability, T/C [30]: 18.1%
viability, T/C [31]: 92.1%
viability, T/C [32]: 75.1%
viability, T/C [33]: 67.4%
viability, T/C [34]: 52.8%
viability, T/C [35]: 16.9%
viability, T/C [36]: 9.3%

IC50 (second compound 0.00316 µM): > 10 µM
IC50 (second compound 0.01 µM): > 10 µM
IC50 (second compound 0.0316 µM): > 10 µM
IC50 (second compound 0.1 µM): > 10 µM
IC50 (second compound 0.316 µM): > 10 µM
IC50 (second compound 1 µM): > 10 µM
Compound: C=CC(=O)N1CCN(c2nc(=O)n(-c3c(C)ccnc3C(C)C)c3nc(-c4c(O)cccc4F)c(F)cc23)C(C)C1 (stereo not given) + CC(Nc1ccc2c(c1)OCCn1cc(N3C(=O)OCC3C(F)F)nc1-2)C(N)=O
viability, T/C [1]: 83.8%
viability, T/C [2]: 89.9%
viability, T/C [3]: 89.4%
viability, T/C [4]: 92.5%
viability, T/C [5]: 102%
viability, T/C [6]: 110%
viability, T/C [7]: 90.2%
viability, T/C [8]: 84.9%
viability, T/C [9]: 101%
viability, T/C [10]: 102%
viability, T/C [11]: 102%
viability, T/C [12]: 97.8%
viability, T/C [13]: 88.3%
viability, T/C [14]: 97.2%
viability, T/C [15]: 91.2%
viability, T/C [16]: 90.2%
viability, T/C [17]: 99%
viability, T/C [18]: 96.3%
viability, T/C [19]: 83.7%
viability, T/C [20]: 92.2%
viability, T/C [21]: 96.5%
viability, T/C [22]: 103%
viability, T/C [23]: 94%
viability, T/C [24]: 98.6%
viability, T/C [25]: 77.5%
viability, T/C [26]: 90.8%
viability, T/C [27]: 88%
viability, T/C [28]: 86.9%
viability, T/C [29]: 83.4%
viability, T/C [30]: 86.2%
viability, T/C [31]: 82.7%
viability, T/C [32]: 79%
viability, T/C [33]: 87.5%
viability, T/C [34]: 83.5%
viability, T/C [35]: 86.6%
viability, T/C [36]: 81.3%

Reference: PubChem BioAssay AID1963980 (Molecular Pharmacology Branch, DTP, NCI, 2024)
